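Each compound was tested at five concentrations against cells in 96-well plates for 48 hours. Here, GI50 denotes the concentration required for 50% inhibition of growth. TGI: total growth inhibition.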
Legend:
Assay in all cases: NCI-60 cell line screen, 48 h
MCF7 breast = system: MCF7 breast
NCI/ADR-RES ovarian = system: NCI/ADR-RES ovarian
NCI-H23 lung = system: NCI-H23 lung
SF-295 CNS = system: SF-295 CNS
T-47D breast = system: T-47D breast
OVCAR-4 ovarian = system: OVCAR-4 ovarian
HS 578T breast = system: HS 578T breast
MDA-MB-435 = system: MDA-MB-435
OVCAR-5 ovarian = system: OVCAR-5 ovarian
UACC-62 melanoma = system: UACC-62 melanoma
SNB-75 CNS = system: SNB-75 CNS
RXF 393 renal = system: RXF 393 renal
COLO 205 colon = system: COLO 205 colon
SF-268 CNS = system: SF-268 CNS
SK-OV-3 ovarian = system: SK-OV-3 ovarian
SN12C renal = system: SN12C renal
SW-620 colon = system: SW-620 colon
MDA-MB-468 breast = system: MDA-MB-468 breast
RPMI-8226 leukemia = system: RPMI-8226 leukemia
A498 renal = system: A498 renal
UO-31 renal = system: UO-31 renal
K-562 leukemia = system: K-562 leukemia
BT-549 breast = system: BT-549 breast
U251 CNS = system: U251 CNS
IGROV1 ovarian = system: IGROV1 ovarian
CAKI-1 renal = system: CAKI-1 renal
TK-10 renal = system: TK-10 renal
NCI-H226 lung = system: NCI-H226 lung
CCRF-CEM leukemia = system: CCRF-CEM leukemia
A549 NSCLC = system: A549 NSCLC
OVCAR-8 ovarian = system: OVCAR-8 ovarian
SK-MEL-5 melanoma = system: SK-MEL-5 melanoma
NCI-H460 lung = system: NCI-H460 lung
MDA-MB-231 breast = system: MDA-MB-231 breast
SF-539 CNS = system: SF-539 CNS
ACHN renal = system: ACHN renal
SK-MEL-28 melanoma = system: SK-MEL-28 melanoma
SNB-19 CNS = system: SNB-19 CNS
MALME-3M melanoma = system: MALME-3M melanoma
786-0 renal = system: 786-0 renal
HOP-92 NSCLC = system: HOP-92 NSCLC
SK-MEL-2 melanoma = system: SK-MEL-2 melanoma
HCT-15 colon = system: HCT-15 colon
KM12 colon = system: KM12 colon
HCC-2998 colon = system: HCC-2998 colon
NCI-H522 lung = system: NCI-H522 lung
OVCAR-3 ovarian = system: OVCAR-3 ovarian
HOP-62 NSCLC = system: HOP-62 NSCLC
EKVX NSCLC = system: EKVX NSCLC
LOX IMVI melanoma = system: LOX IMVI melanoma

## Cc1ccc(/C(CSc2nnc(-c3c[nH]c4ccccc34)n2-c2ccccc2)=N/O)cc1
MCF7 breast
  GI50: 2.42 µM
  TGI: 7.01 µM
NCI/ADR-RES ovarian
  GI50: 2 µM
  TGI: 3.9 µM
NCI-H23 lung
  GI50: 10.1 µM
  TGI: 52.2 µM
SF-295 CNS
  GI50: 1.64 µM
  TGI: 3.18 µM
T-47D breast
  GI50: 2.07 µM
  TGI: 4.75 µM
OVCAR-4 ovarian
  GI50: 1.75 µM
  TGI: 3.51 µM
HS 578T breast
  GI50: 2.07 µM
  TGI: 4.82 µM
MDA-MB-435
  GI50: 1.63 µM
  TGI: 3.05 µM
OVCAR-5 ovarian
  GI50: 1.69 µM
  TGI: 3.11 µM
UACC-62 melanoma
  GI50: 1.69 µM
  TGI: 3.26 µM
SNB-75 CNS
  GI50: 1.4 µM
  TGI: 2.77 µM
RXF 393 renal
  GI50: 1.85 µM
  TGI: 3.76 µM
COLO 205 colon
  GI50: 3.77 µM
  TGI: 37.4 µM
SF-268 CNS
  GI50: 1.99 µM
  TGI: 4.66 µM
SK-OV-3 ovarian
  GI50: 1.68 µM
  TGI: 3.64 µM
SN12C renal
  GI50: 2.33 µM
  TGI: 6.8 µM
SW-620 colon
  GI50: 1.79 µM
  TGI: 3.55 µM
MDA-MB-468 breast
  GI50: 1.5 µM
  TGI: 2.91 µM
RPMI-8226 leukemia
  GI50: 2.05 µM
  TGI: 4.81 µM
A498 renal
  GI50: 24.8 µM
  TGI: 89.1 µM
UO-31 renal
  GI50: 1.82 µM
  TGI: 4.15 µM
K-562 leukemia
  GI50: 2.01 µM
  TGI: 4.97 µM
BT-549 breast
  GI50: 1.59 µM
  TGI: 3.03 µM
U251 CNS
  GI50: 8.22 µM
  TGI: > 100 µM
IGROV1 ovarian
  GI50: 2.09 µM
  TGI: 4.35 µM
CAKI-1 renal
  GI50: 1.63 µM
  TGI: 3.06 µM
TK-10 renal
  GI50: 1.9 µM
  TGI: 3.87 µM
NCI-H226 lung
  GI50: 1.63 µM
  TGI: 3.36 µM
CCRF-CEM leukemia
  GI50: 2.14 µM
  TGI: 4.98 µM
A549 NSCLC
  GI50: 3.55 µM
  TGI: 69.7 µM
OVCAR-8 ovarian
  GI50: 2.19 µM
  TGI: 4.89 µM
SK-MEL-5 melanoma
  GI50: 4.76 µM
  TGI: 48.1 µM
NCI-H460 lung
  GI50: 3.18 µM
  TGI: 12.2 µM
MDA-MB-231 breast
  GI50: 1.77 µM
  TGI: 3.33 µM
SF-539 CNS
  GI50: 2.06 µM
  TGI: 4.41 µM
ACHN renal
  GI50: 1.79 µM
  TGI: 3.35 µM
SK-MEL-28 melanoma
  GI50: 5.67 µM
  TGI: 38.7 µM
SNB-19 CNS
  GI50: 1.87 µM
  TGI: 3.97 µM
MALME-3M melanoma
  GI50: 2.26 µM
  TGI: 5.57 µM
786-0 renal
  GI50: 10 µM
  TGI: 31.4 µM
HOP-92 NSCLC
  GI50: 11.9 µM
  TGI: 37.4 µM
SK-MEL-2 melanoma
  GI50: 2.88 µM
  TGI: 8.96 µM
HCT-15 colon
  GI50: 1.75 µM
  TGI: 3.34 µM
KM12 colon
  GI50: 8.65 µM
  TGI: > 100 µM
HCC-2998 colon
  GI50: 2.09 µM
  TGI: 3.93 µM
NCI-H522 lung
  GI50: 2.24 µM
  TGI: 6.04 µM
OVCAR-3 ovarian
  GI50: 4.26 µM
  TGI: 25.5 µM
HOP-62 NSCLC
  GI50: 1.69 µM
  TGI: 3.42 µM
EKVX NSCLC
  GI50: 2.15 µM
  TGI: 5.58 µM
LOX IMVI melanoma
  GI50: 1.75 µM
  TGI: 3.17 µM
